Assays:
[1] = Human serum stability assay (UPLC-MS); settings: 37 °C
Protocol: Established protocols were used to analyze peptide stability in human serum isolated from male AB plasma (Sigma-Aldrich). Briefly, thawed plasma was centrifuged for 10 min at 15,000× g to concentrate lipids. The supernatant was carefully removed with a Pasteur pipette and incubated for 15 min at 37 °C, 5% CO2. […] Controls were synthetic Kalata B1 or TMZ in PBS that were incubated in parallel with human serum test compounds. Serum proteins were denatured with urea (final concentration of 3M) at 4 °C for 10 min., at each time point. Afterwards, trichloroacetic acid (7% final v/v) was added for 10 min to precipitate the proteins. Each sample was centrifuged for 10 min at 15,000× g; the supernatant was removed an evaluated in triplicate using UPLC-MS.
We conducted peptide stability assays in human serum isolated from male AB plasma and then analyzed with UPLC-MS. Synthetic Kalata B1 and TMZ were incubated with human serum and the portion of the peptide remaining was quantified by calculating the area of the respective elution peak in UPLC-MS, compared to the control.
Percentage of Kalata B1 and TMZ remaining upon incubation with human serum. The portion of serum-treated peptide remaining was determined by calculating the area of the respective elution peak in UPLC-MS and comparing it with the control without incubation. Data points are means ± SEM.

[2] = test system: U-87 MG human glioblastoma cells; assay: cells; settings: read-out: IC50 (μM) ± S.D.; U-87 MG, MTT, 72 h, 6000 cells/well, cyclotides 0.1-10 μM, TMZ 0.5-5000 μM, best fit nonlinear regression, triplicate wells, n = 3
Protocol: (§1) SH-SY5Y human neuroblastoma cells (population doubling (PD) 20−24), T-98G, and U-87 MG human glioblastoma cells were removed from cryogenic storage, thawed rapidly in a water bath (37 °C) and reconstituted in 75 cm^2 flasks. For SH-SY5Y, the following media were used: Dulbecco’s modified Eagle’s medium/Nutrient F12 Ham (Sigma-Aldrich, Cat. No. D8437) containing 10% heat-inactivated fetal bovine serum, 4 mM L-glutamine, 100 U/mL penicillin, and 100 μg/mL streptomycin. For U-87 MG and T-98G Eagle’s minimal essential medium (ATCC: The Global Bioresource Center, Cat. No. ATCC 30-2003), containing 10% heat-inactivated fetal bovine serum, 4 mM L-glutamine, 100 U/mL penicillin, and 100 μg/mL streptomycin were used.
(§2) Cells were incubated at 37 °C in a humidified atmosphere of 5% CO2 and 95% air until recovered and ready for passaging (approximately 4 days). At between 80% and 90% confluence, the cells were trypsinized with warm (37 °C) sterile 0.5% Trypsin-EDTA (Thermo Fisher, Cat. No. 15400054) and passaged into 175 cm^2 flasks, where they were left to multiply until they reached 80−90% confluence. To plate cells: cultures were trypsinized, resuspended in 20 mL sterile PBS, counted using a cell counter (Olympus cell counter model R1), and plated in 96-well plates at an optimal density of 6000 cells/well in the designated culture media. The cells were left to adhere overnight before treatment the following day, when the culture medium was removed and replaced with the treatment medium. All incubations were conducted in triplicate wells and repeated at least three times (n = 3).
(§3) To calculate TMZ IC50 values in each cell line, TMZ was dissolved in DMSO at a stock concentration of 103 mM, which was then diluted into culture medium on the day of use, with the DMSO final concentration always less than 0.1%. The following concentrations of TMZ were used in the experiments: 0.5, 5, 50, 500, 2500, 5000 μM. The media were sterilized for each treatment media with a 0.22 μm filter before they were added to cell cultures. To determine the IC50 values for each cyclotide in each cell type, cyclotides were dissolved into 10% DMSO and then dilutions used to screen cyclotides with a final DMSO concentration of less than 0.1% The following concentrations of cyclotides were used: 0.1, 1, 5, 10 μM. For co-exposure experiments, a simultaneous exposure of cyclotide and TMZ at each respective dose was added to cell cultures (100 μL final volume per well).
(§4) In accordance with the methods developed by Mosmann and colleagues, the MTT assay was conducted using the Roche cell proliferation kit (Cat. No. 11465007001). Briefly, cells that are active can cleave MTT. The MTT is originally a yellow tetrazolium salt that undergoes a colorimetric change to purple formazan crystals, and the change in absorbance can be measured as an indicator of cell viability/proliferation. For these experiments, cells were plated into 96-well flat-bottom plates, as described in the cell culture above. […] To align with our previous work, experiments were conducted with a 72 h time frame for cytotoxicity evaluation.
(§5) After a 72 h incubation period, plates were removed from the incubator and 10 µL of MTT was added to each well. The plates were returned to the incubator for an additional 4 h, after which 100 µL of a solubilization solution was added to each well. The plates were returned to incubation overnight, and the next day absorbances were read at 570 nm on a Molecular Devices FlexStation 3 using SoftMax Pro Microplate Data Acquisition and Analysis Software (version 7.0.2).

[3] = test system: T-98G human glioblastoma cells; assay: cells; settings: read-out: IC50 (μM) ± S.D.; T-98G, MTT, 72 h, 6000 cells/well, best fit nonlinear regression, triplicate wells, n = 3
Protocol: as §1, §2, §3, §4, §5

[4] = test system: U-87 MG glioblastoma cells; assay: MTT co-exposure of synthetic Kalata B1 and TMZ in U-87 MG cells; type: cell-based, human; settings: TMZ 100 µM + synthetic Kalata B1 0.5 µM, MTT 72 h, ANOVA/Tukey
Protocol: To calculate TMZ IC50 values in each cell line, TMZ was dissolved in DMSO at a stock concentration of 103 mM, which was then diluted into culture medium on the day of use, with the DMSO final concentration always less than 0.1%. The following concentrations of TMZ were used in the experiments: 0.5, 5, 50, 500, 2500, 5000 μM. The media were sterilized for each treatment media with a 0.22 μm filter before they were added to cell cultures. […]
In accordance with the methods developed by Mosmann and colleagues, the MTT assay was conducted using the Roche cell proliferation kit (Cat. No. 11465007001). […] The MTT is originally a yellow tetrazolium salt that undergoes a colorimetric change to purple formazan crystals, and the change in absorbance can be measured as an indicator of cell viability/proliferation. […]
Figure 8 Synthetic Kalata B1 increased TMZ-induced cell death in U-87 MG glioblastoma cultures. To determine if synthetic Kalata B1 (K) enhances TMZ (T)-induced cell death in U-87 MG cells, MTT was measured after incubating the cell cultures with concentrations of K (0.5, 1.0, 2.0, and 4.0 μM) and T (100, 200, 400, and 800 μM) both alone and when co-exposed to synthetic Kalata B1 and TMZ as illustrated in panels (A–M). […] Cell viability was measured using MTT and expressed as a percentage of control cultures (culture medium with DMSO only). […]

[5] = test system: primary human brain endothelial cells; settings: SYTOX green assay; cited from earlier work
Source text: Challenges commonly associated with treating cancer can include low drug uptake across the cellular lipid bilayer, the activity of pumps, such as p-glycoprotein, that efflux drugs out of the cell, and the impenetrability of the blood–brain barrier. Our previous research provided supporting evidence that cyclotides such as CyO2 can act as adjuvants in drug-resistant breast cancer cells, whereby cyclotides sensitize human breast adenocarcinoma (MCF-7) and drug-resistant human breast adenocarcinoma (MCF-7/ADR) cells to the FDA-approved anti-cancer drug, doxorubicin. In that case, one ...

glioblastoma cells = settings: cytotoxicity; ref Our previous research; cited from earlier work
U-251 glioblastoma cells = settings: MTT; cited from earlier work
U-87 glioblastoma cells = settings: MTT; cited from earlier work
U-87 MG cells = settings: U-87 MG; cited from earlier work
mice = settings: cited from earlier work
Source text: (§6) The development of an in vivo mouse model is vital, yet it requires expertise, significant finances, and large quantities of the target cyclotide. […] A mouse model of anaplastic large cell lymphoma (ALCL) was developed, and the Kalata B1 mutant, named [T20K] Kalata B1, decreased tumor weight and increased ...

interleukin-2 (IL-2) = settings: cited from earlier work
Source text: Although a mechanistic evaluation of Kalata B1 bioactivity was beyond the scope of this research, a brief discussion of the previous mechanistic studies is justified. For instance, Henriques and colleagues provided supporting evidence that cyclotides can target phosphatidylethanolamine (PE)-enriched phospholipids and penetrate the cell via both endocytosis and membrane translocation.

[6] = test system: anaplastic large cell lymphoma (ALCL); settings: mouse model of anaplastic large cell lymphoma; cited from earlier work
Source text: as §6

## CC(C)C[C@@H]1NC(=O)CNC(=O)[C@H](CC(N)=O)NC(=O)[C@H](CCCNC(=N)N)NC(=O)[C@H]([C@@H](C)O)NC(=O)[C@@H]2CSSC[C@@H]3NC(=O)[C@H]([C@@H](C)O)NC(=O)CNC(=O)CNC(=O)[C@H](C(C)C)NC(=O)[C@@H]4CSSC[C@H](NC(=O)[C@H]([C@@H](C)O)NC(=O)[C@H](CSSC[C@H](NC(=O)[C@H](C(C)C)NC(=O)[C@@H]5CCCN5C1=O)C(=O)NCC(=O)N[C@@H](CCC(=O)O)C(=O)N[C@@H]([C@@H](C)O)C(=O)N4)NC(=O)CNC(=O)[C@@H]1CCCN1C(=O)[C@H]([C@@H](C)O)NC(=O)[C@H](CC(N)=O)NC3=O)C(=O)N[C@@H](CO)C(=O)N[C@@H](Cc1c[nH]c3ccccc13)C(=O)N1CCC[C@H]1C(=O)N[C@@H](C(C)C)C(=O)N2 [Kalata B1 (synthetic), Kalata B1]
[1]; data points of 3 h, 8 h and 24 h, human serum from male AB plasma, 300 µM stock diluted 10 times, UPLC-MS peak area vs control, triplicate, listed as synthetic Kalata B1
  Stability in human serum (in words): remains stable
[1]; human serum isolated from male AB plasma, UPLC-MS
  Time for which the peptide remains stable in human serum: at least 24 h
[2]
  IC50: 5.4 ± 1.06 µM
[3]
  IC50: 2.6 ± 0.24 µM
[4]
  Fold lower TMZ concentration than TMZ IC50 still giving significant cytotoxicity on co-exposure: 16 fold

## Cycloviolacin O2 [CyO2]
[5]
  Membrane disruption: did not produce significant membrane disruption
Glioblastoma cells
  IC50: 4.5 µM
U-251 glioblastoma cells
  IC50: 0.79 µM
U-87 glioblastoma cells
  IC50: 0.45 µM
U-87 MG cells
  Fold less TMZ required for significant cell death on co-exposure with the cyclotide: 8 fold
mice; mice treated with 1.5 mg/kg in tumor mouse models
  In vivo toxicity at 1.5 mg/kg: no signs of discomfort
mice; mice, single injection 2 mg/kg
  In vivo toxicity, single injection at 2 mg/kg: lethal

## [T20K] Kalata B1: a Kalata B1 mutant (cyclo(GLPVCGETCVGGTCNTPGCKCSWPVCTRN); disulfide (positions not given here); ends not checked; also: disulfides, places not given here; UniProt P56254 89-117, looked up, variant T20K)
interleukin-2 (IL-2)
  Effect on IL-2 expression, IL-2 cytokine secretion and IL-2 gene expression: could decrease
[6]
  Anti-tumor effect in ALCL mouse model: decreased tumor weight and increased apoptosis
